These are literature values, as cited in article PMC8468386, “Rapid Identification of Potential Drug Candidates from Multi-Million Compounds’ Repositories. Combination of 2D Similarity Search with 3D Ligand/Structure Based Methods and In Vitro Screening” (Molecules, 2021).

For orientation: IC50 means the concentration that gives 50% inhibition.

One data set relates to PDE5. More on the design: method as in PMID 21947759. The following applies: PDE5 inhibitor first round hit compounds.
For the compound `COC(=O)c1sccc1NC(=O)N1CCc2c([nH]c3ccccc23)C1c1ccc(OC)cc1` (stereo not drawn) [compound 4], the IC50 is 190 nM.

As to `COc1ccc(C2c3c(n(C)c4ccccc34)C(=O)N2CC(=O)N2CCN(c3ncccn3)CC2)cc1` (stereo not drawn) [compound 5], the IC50 is 6740 nM.

For the compound `Cn1c(=O)c2c(nc(Oc3cccc(C=NO)c3)n2Cc2ccccc2Cl)n(C)c1=O` [compound 2], the concentration for half-maximal inhibition (IC50) was 1990 nM.

In the case of `CCc1ccccc1OCc1nc2ccc(S(=O)(=O)N3CCOCC3)cc2[nH]1` [compound 1], the IC50 was 3650 nM.

The subject of another data set is Complement Component C1s. More on the design: method as in PMID 31600984. The note with it: C1s inhibitors.
As to `Cc1sc2nc(-c3ccco3)oc(=O)c2c1C` [#17], the IC50 is 549 nM.

For `O=c1nc(-c2cccs2)oc2cc(Cl)ccc12` [#21], the half-inhibitory concentration (IC50) is 241 nM.
